Assay [1] has as its system PARP (caspase-3/caspase-7 substrate). In words: Western blotting of PARP cleavage in BLIN-3 and BLIN-4L. The assay is classed as cell-based, human. To be noted: overnight incubation of BLIN-3 and BLIN-4L cells, 50 μM. The method, then: Western blotting. This method was conducted essentially as previously described.^20 The antibodies used were: rabbit anti-caspase-2 (catalog # sc-625, Santa Cruz Biotechnology Inc., Santa Cruz, Calif.), rabbit anti-caspase-3 (catalog # 9661, Upstate Cell Signaling Solutions, Waltham, Mass.), rabbit anti-caspase-6 (catalog # 9761, Upstate), rabbit anti-caspase-9 (catalog # 9502, Upstate), mouse anti-PARP (catalog # 556494, Pharmingen), and rabbit anti-Bid (catalog # AF846, R&D Systems). The antibodies to caspase-2 and caspase-9 were generated to the procaspase isoforms, whereas the antibodies to caspase-3 and caspase-6 were generated to cleavage products.
As expected, inclusion of 50 μM PCi had no effect. The degree of PARP cleavage in the presence of C9i (greater in BLIN-3 than BLIN-4L) correlated with the percentage of Annexin V+ cells (FIG. 3).
For orientation: Immunoblotting shows a protein as a band on a membrane.

A further assay has as its system leukemia/lymphoma cells. In words: Pro-apoptotic activity of caspase inhibitor sequences (Table 2). It is filed as cell-based. Set-up: key: “−” is no activity; ++++ is maximum activity. From the text: Caspases are constitutively express in cells, and are usually in their pro-form. In response to an incident, such as irradiation or chemotherapy, the pro-form of the caspase is converted into the activated state. Certain compounds are known that can inhibit caspases. For example, the pan-caspase (PCi) VAD can block all caspases. […] For example, C2i inhibits caspase-2. This particular inhibitor is very dose dependent.

Another assay deals with CD33+ myeloid cells. In words: Annexin V staining of sorted cord blood-derived CD33+ myeloid cells removed from MS-5 stroma. The assay is classed as cell-based, human. The conditions noted are these: cultured 18 hours, DMSO control 27.9 ± 3.9, Time 0 <10.
The test system of the next assay is CD19+ B-cell precursors. In words: Annexin V staining of sorted cord blood-derived CD19+ B-cell precursors removed from MS-5 stroma. The assay is classed as cell-based, human. The conditions noted are these: cultured 18 hours, DMSO control 46.5 ± 1.4, Time 0 1.5. The method, then:
Normal B-lineage cells. CD19+ B-lineage cells were derived from CD34+ human cord blood stem cells plated on the murine stromal cell line MS-5 (Itoh Exp Hematol. 1989;17:145-153). MS-5 stromal cells were kindly provided by Dr. Paul Kincade (University of Oklahoma Medical Research Foundation), following permission from Professor K. John Mori (Niigata University, Japan). FACS-purified CD34+/CD38+/lineage—cord blood hematopoietic stem cells were plated onto confluent, non-irradiated MS-5 stromal cells in 96-well flat-bottom plates (200 cells/well) containing Minimal Essential Medium supplemented with 10% FBS. Stem cell factor and G-CSF were added at 10 ng/ml (twice weekly) to enhance the emergence of CD19+ B-lineage cells (Nishihara Eur J Immunol. 1998;28:855-864; Ohkawara Leukemia. 1998;12:764-771). […] Wells were then pooled, stained with PE-conjugated anti-CD 19 + propidium iodide (PI), and sorted on a FACSVantage (BD Immunocytometry Systems, San Jose, Calif.). Cord blood CD34+/CD38+/lineage—cells were provided by Valerie McCullar and Dr. Jeff Miller of the University of Minnesota Cancer Center in accordance with the University of Minnesota Institutional Review Board on Human Subjects.
Flow cytometry. Quantitation of apoptotic events was conducted using a FACS Calibur (BD Immunocytometry Systems). […]

For assay [2], the system named is BLIN-3 cells. In words: Loss of mitochondrial transmembrane potential (TMRE) and YO-PRO permeability in BLIN-3. To be noted: BLIN-3 removed from adherent fibroblasts, 50 μM, compared to DMSO. It is filed as cell-based, human. On the procedure: Numbers in the histograms indicate the percentage of PI^- cells that underwent a loss of Δψm. Numbers in the contour plots indicate the percentage of Annexin V^+/PI^- cells. […] Numbers in the contour plots indicate the percentage of YO^- PRO^+/PI^- cells. Numbers in the histograms indicate the percentage of PI^- cells that underwent a loss of Δψm. Flow cytometry. Quantitation of apoptotic events was conducted using a FACS Calibur (BD Immunocytometry Systems). All analyses were conducted on cells with lymphoid light scatter characteristics (i.e., low to medium forward scatter and low 90° side scatter). i. Mitochondrial transmembrane potential (Δψm). The cationic lipophilic fluorescent dye tetramethylrhodamine, ethyl ester, perchlorate (TMRE) was purchased from Molecular Probes, Inc. (Eugene, Oreg.). TMRE has a high degree of membrane permeability and accumulates into mitochondria in accord with the Nernstian equation (Farkas Biophys J. 1989;56:1053-1069). Cells were washed once and re-suspended to 0.5-1.0×10^6/ml in X-VIVO 10. TMRE was added to a final concentration of 50 nM and the cells were incubated in the dark at 37° C. for 15 minutes. […] ii. YO-[…]. The green fluorescent DNA intercalant dye YO-PRO-1 (Idziorek J Immunol Methods. 1995;185:249-258) was purchased from Molecular Probes as the Vybrant Apoptosis Assay Kit #4. […]

Assay [3] concerns BLIN-3 cells. In words: Apoptosis by Annexin V staining and flow cytometry, BLIN-3. It is filed as cell-based, human. The conditions noted are these: BLIN-3 removed from adherent fibroblasts, 50 μM. The method, then: (§1) Flow cytometry. Quantitation of apoptotic events was conducted using a FACS Calibur (BD Immunocytometry Systems). All analyses were conducted on cells with lymphoid light scatter characteristics (i.e., low to medium forward scatter and low 90° side scatter).
(§2) iii. Annexin V. FITC-labeled Annexin V (BD Pharmingen, San Diego, Calif.) was used to detect external phosphatidylserine residues appearing on the external surface of early apoptotic cells (Koopman Blood. 1994;84:1415-1420). Cells were stained according to the manufacturers recommendations.
(§3) General experimental strategy. BLIN cell lines were removed from fibroblast monolayers, washed once and resuspended to 7.5×10^5/ml in X-VIVO 10. Two hundred μL of resuspended cells were added to 96-well flat-bottom microtiter plates (ISC Bioexpress, Kaysville, Vt.), followed by 0.5-1.0 μL of caspase inhibitors in DMSO. An identical volume of DMSO alone was added to separate wells as a vehicle control. This final DMSO concentration of 0.25-0.5% vol/vol had no adverse affect on any of the BLIN cell lines. At the indicated times the entire content of individual wells was harvested and stained in the fluorescent protocols described above.
The inventors carried out experiments to test the influence of specific amino acid substitutions on the proapoptotic activity Z-LEHD-fmk. Cells were cultured for 24 hours with various μM concentrations of Z-LEDH-fmk or single amino acid substitution of the parent peptide. All values in the following Table 3 represent the percentage of total Annexin V+ cells (PI+ and PI−) minus the percentage present in culture with DMSO alone (BLIN-2=3%; BLIN-3+7%; BLIN4L=5%).

The subject of the next assay is BLIN cell lines. Briefly: Enhancement of apoptosis in BLIN cell lines (flow cytometry). It is filed as cell-based, human. To be noted: BLIN cell lines. The method, then:
as §1
i. Mitochondrial transmembrane potential (Δψm). The cationic lipophilic fluorescent dye tetramethylrhodamine, ethyl ester, perchlorate (TMRE) was purchased from Molecular Probes, Inc. (Eugene, Oreg.). TMRE has a high degree of membrane permeability and accumulates into mitochondria in accord with the Nernstian equation (Farkas Biophys J. 1989;56:1053-1069). Cells were washed once and re-suspended to 0.5-1.0×10^6/ml in X-VIVO 10. TMRE was added to a final concentration of 50 nM and the cells were incubated in the dark at 37° C. for 15 minutes. Cells were then washed 2× in PBS, resuspended in PBS containing 2 μg/ml of propidium iodide (PI), and immediately analyzed. The protonophore […] (50 μM, CCCP, Sigma) was used as a positive control to effect loss of Δψm in 100% of cells.
ii. YO-PRO-1. The green fluorescent DNA intercalant dye YO-PRO-1 (Idziorek J Immunol Methods. 1995;185:249-258) was purchased from Molecular Probes as the Vybrant Apoptosis Assay Kit #4. Dual staining with YO-PRO and PI allows for the detection of early apoptotic cells (YO-PRO+/PI−) that have undergone initial changes in permeability to small molecules. Cells were stained according to the manufacturers recommendations.
as §2, §3

The subject of assay [4] is caspase-9 deficient BLIN-4L. In words: Apoptotic sensitivity of BLIN-4L made deficient in caspase-9 by siRNA, Annexin V. To be noted: Annexin V+ events minus DMSO.

The star is where a group is joined. Cbz = O=C(OCc1ccccc1)*; CH2F = FC*

As for Z-VAD-fmk [PCi, reference compound], the “cleavage of the caspase-3/caspase-7 substrate PARP” value in assay [1] is on record as “had no effect”. In addition, the “Pro-apoptotic Activity (after 24 hours)” value with leukemia/lymphoma cells was “−”. Besides, the “percentage of total Annexin V+ cells (PI+ and PI−), mean ± SD” value with CD33+ myeloid cells is reported as 18.0 ± 3.9 %; with CD19+ B-cell precursors it was 39.5 ± 1.8 %. Moreover, the “loss of Δψm (TMRE)” value in the assay on BLIN-3 cells [2] is listed as “did not prevent loss of Δψm”. Moreover, the “appearance of Annexin V+ cells” value in the assay with BLIN-3 cells [3] was “completely blocked”. In the assay with BLIN cell lines, the enhancement of apoptosis result is “did not enhance apoptosis”.
Take LEHD [C91/ΔFMK]: in the assay on leukemia/lymphoma cells, the “Pro-apoptotic Activity (after 24 hours)” value was “−”.
Take LEAD [C9i/H > A]: in the assay with leukemia/lymphoma cells, the “Pro-apoptotic Activity (after 24 hours)” value is recorded as “−”.
Still for that read-out and setting: the entry for Cbz-VEID-CH2F [C6i, reference compound] is “−”; for “LEED (printed: Leu-Glu-Glu-Asp) [C9i/H > E, variant of Z-LEHD-fmk, Leu-Glu-Glu-Asp]” it is “−”.
Still for that read-out and setting: under “WEHD (printed: Trp-Glu-His-Asp) [C9i/L > W, variant of Z-LEHD-fmk, Trp-Glu-His-Asp]” stands “++++”.
In the case of “Cbz-VDVAD-CH2F [C2i, reference compound]”, the “Pro-apoptotic Activity (after 24 hours)” value in the assay with leukemia/lymphoma cells is “−”.
On the same count and under the same terms, under Z-DEVD-fmk [C3i, reference compound] stands “−”.
As to `COc1cc([C@@H]2c3cc4c(cc3[C@@H](O[C@@H]3O[C@@H]5CO[C@@H](C)O[C@H]5[C@H](O)[C@H]3O)[C@H]3COC(=O)[C@H]23)OCO4)cc(OC)c1O` [etoposide], the “apoptotic response of caspase-9 deficient BLIN-4L compared with control siRNA treated cells” value in assay [4] is listed as “no difference”.
Same read-out and setting: under `CN[C@@H]1C[C@H]2O[C@@](C)([C@@H]1OC)n1c3ccccc3c3c4c(c5c6ccccc6n2c5c31)C(=O)NC4` [staurosporine] stands “significantly more sensitive”.
